# Laboratory results: USRE45173E1, “Inhibitors of CYP 17” (Novartis AG, priority 2009, dated 2014)
# Counter-ions that a name gives are not always drawn.
# Target: recombinant human CYP17 enzyme (Homo sapiens (Human), UniProt P05093)
# Experiment: Cytochrome P450, 17-20 lyase (CYP17-lyase) assay, tritiated acetic acid release from 17-α-hydroxy pregnenolone [21-3H]
# Assay type: biochemical
# Conditions: human CYP17, substrate 0.25 μM; read-out: Lyase IC 50 nM Human/Rat (Human)
# Text: Assay method was adopted from a published protocol with some modifications to suit our requirements (Dmitry N Grigoryev et al, Analytical Biochemistry, (1999) 267, 319-330). […] Chloroform extraction removes the radioactive steroids and acetic acid is taken into aqueous layer. The tritiated acetic acid released in the assay thus extracted is quantified to determine the enzyme activity. […] The purified cell membrane preparations were used as the source for Human CYP17 enzyme. […] O, Nijar, et al., J Med Chem, (1998) 41, 902-912). […] Km for this substrate was determined by monitoring the tritiated acetic acid release as a function of substrate concentration. […] For the Km determination, the data was fit to a hyperbolic equation (Graphpad Prism® software IV). […] (Dmitry N. Grigoryev et al, Analytical Biochemistry (1999) 267, 319-330) […] NADPH is used at a final concentration of 4.2 mM. Total reaction volume was made up to 50 μL with 50 mM Phosphate buffer pH 7.5. The reaction mixture was incubated at room temperature for 90 minutes with gentle shaking. The reaction was stopped by the addition of 100 μL of buffer. 500 μL of 5% freshly prepared activated charcoal was added to the solution and mixed well by vortexing. The samples were centrifuged at 17568×g for 5 minutes. (14000 rpm). The supernatant was carefully transferred to fresh tube and 1.3 mL of scintillation fluid was added, mixed by vortexing. The radioactivity was measured in a 1450 MicroBeta TriLux™ scintillation counter from Wallac-Perkin Elmer®, USA. The measurements were carried out in 2.0 mL Eppendorforf™ tubes. […] The amount of tritiated acetic acid released is proportional to the lyase activity. Percent lyase activity in presence of inhibitor was calculated using the formula given below. […] Enzyme reaction in presence of inhibitor. • Positive control: […] For IC50 determination, the % inhibition was plotted as a function of inhibitor concentration. The data was fitted to sigmoidal equation using Graphpad Prism® software IV to generate IC50 values.
# Chain of recombinant human CYP17 enzyme (P05093 whole entry): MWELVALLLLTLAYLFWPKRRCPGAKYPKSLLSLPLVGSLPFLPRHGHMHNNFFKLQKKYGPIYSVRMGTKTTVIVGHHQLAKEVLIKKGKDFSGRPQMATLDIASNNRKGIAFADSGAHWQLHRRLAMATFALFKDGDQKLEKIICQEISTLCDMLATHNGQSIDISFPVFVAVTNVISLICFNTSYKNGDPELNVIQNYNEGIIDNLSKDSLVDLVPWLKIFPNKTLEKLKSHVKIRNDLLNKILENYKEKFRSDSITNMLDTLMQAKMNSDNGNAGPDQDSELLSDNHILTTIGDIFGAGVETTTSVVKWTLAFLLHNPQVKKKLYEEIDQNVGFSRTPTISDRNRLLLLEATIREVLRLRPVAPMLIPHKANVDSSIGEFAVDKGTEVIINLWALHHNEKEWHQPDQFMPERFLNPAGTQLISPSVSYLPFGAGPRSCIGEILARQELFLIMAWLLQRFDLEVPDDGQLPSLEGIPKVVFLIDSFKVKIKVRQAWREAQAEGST
row,IC50 [nM],Compound
1,356,"COc1nccc2sc(N3CCN(c4cnccc4C)C3=O)cc12 [Example 97A, 1-(4-Methoxy-thieno[3,2-c]pyridin-2-yl)-3-(4-methyl-pyridin-3-yl)-imidazolidin-2-one]"
2,32,"O=C1N(c2ccc3ncsc3c2)CCN1c1cnccc1CN1CCOCC1 [Example 177A, 1-benzothiazol-6-yl-3-(4-morpholin-4-ylmethyl-pyridin-3-yl)-imidazolidin-2-one]"
3,12,"Cc1cc(N2CCN(c3cnccc3C)C2=O)cs1 [Example 92B, 1-(4-Methyl-pyridin-3-yl)-3-(5-methyl-thiophen-3-yl)-imidazolidin-2-one]"
4,34,"Cc1ccncc1N1CCN(c2ccccc2)C1=O [Example 69A, 1-(4-Methyl-pyridin-3-yl)-3-phenyl-imidazolidin-2-one]"
5,35,"Cc1ccncc1N1CCN(c2cccc(C#N)c2)C1=O [Example 106A, 3-[3-(4-Methyl-pyridin-3-yl)-2-oxo-imidazolidin-1-yl]-benzonitrile]"
6,89,"Cc1ccncc1N1CCN(c2cnsc2)C1=O [Example 190A, 1-Isothiazol-4-yl-3-(4-methyl-pyridin-3-yl)-imidazolidin-2-one]"
7,116,"Cc1ccncc1N1CCN(c2ccc3c(N)nn(C)c3c2)C1=O [Example 143A, 1-(3-Amino-1-methyl-1H-indazol-6-yl)-3-(4-methyl-pyridin-3-yl)-imidazolidin-2-one]"
8,3060,"CN1CCC[C@H]1COc1ccncc1N1CCN(c2ccc3ncsc3c2)C1=O (stereo in doubt) [Example 181A, 1-Benzothiazol-6-yl-3-[4-(1-methyl-pyrrolidin-2-ylmethoxy)-pyridin-3-yf]-imidazolidin-2-one]"
9,34,"Cc1ccncc1N1CCN(c2ccc3c(C(F)(F)F)n[nH]c3c2)C1=O [Example 160A, 1-(4-methylpyridin-3-yl)-3-(3-(trifluoromethyl)-1H-indazol-6-yl)imidazolidin-2-one]"
10,9.3,"Cc1ccncc1N1CCN(c2csc(C(F)F)c2)C1=O [Example 78A, 1-(5-Difluoromethyl-thiophen-3-yl)-3-(4-methyl-pyridin-3-yl)-imidazolidin-2-one]"
11,17,"Cc1ccncc1N1CCN(c2ccc3[nH]nc(N)c3c2)C1=O [Example 118A, 1-(3-Amino-1H-indazol-5-yl)-3-(4-methyl-pyridin-3-yl)-imidazolidin-2-one]"
12,119,"Cc1ccncc1N1CCN(c2ccc3[nH]nc(C)c3c2)C1=O [Example 95A, 1-(3-Methyl-1H-indazol-5-yl)-3-(4-methyl-pyridin-3-yl)-imidazolidin-2-one]"
13,317,"Cc1ccncc1N1CCN(c2ccc3cccnc3c2)C1=O [Example 162A, 1-(4-methylpyridin-3-yl)-3-(quinolin-7-yl)imidazolidin-2-one]"
14,1200,"Cc1ccncc1N1CCN(c2cccc(Cl)c2F)C1=O [Example 86A, 1-(3-Chloro-2-fluoro-phenyl)-3-(4-methyl-pyridin-3-yl)-imidazolidin-2-one]"
15,158,"Cc1ccncc1N1CCN(c2csc3ccccc23)C1=O [Example 109A, 1-Benzo[b]thiophen-3-yl-3-(4-methyl-pyridin-3-yl)-imidazolidin-2-one]"
16,12,"Cc1ccncc1N1CCN(c2cccc(Cl)c2)C1=O [Example 88A, 1-(3-Chloro-phenyl)-3-(4-methyl-pyridin-3-yl)-imidazolidin-2-one]"
17,109,"Cc1ccncc1N1CCN(c2ccn3ccnc3c2)C1=O [Example 73A, 1-imidazolidin-2-one]"
18,35,"Cc1ccncc1N1CCN(c2ccc3c(c2)OC(F)(F)O3)C1=O [Example 64A, 1-(2,2-Difluoro-benzo[1,3]dioxol-5-yl)-3-(4-methyl-pyridin-3-yl)-imidazolidin-2-one]"
19,500,"Cc1ccncc1N1CCN(c2csc3ccncc23)C1=O [Example 136A, 1-(4-Methyl-pyridin-3-yl)-3-thieno[3,2-c]pyridin-3-yl-imidazolidin-2-one]"
20,334,"Cc1ccncc1N1CCN(c2c[nH]c3ccccc23)C1=O [Example 107A, 1-(1H-Indol-3-yl)-3-(4-methyl-pyridin-3-yl)-imidazolidin-2-one]"
21,15.9,"Cc1ccncc1N1CCN(c2ccc3c(=O)[nH][nH]c3c2)C1=O [Example 135A, 6-[3-(4-Methyl-pyridin-3-yl)-2-oxo-imidazolidin-1-yl]-1,2-dihydro-indazol-3-one]"
22,110,"Cc1ccncc1N1CCN(c2ccc3nccn3c2)C1=O [Example 94A, 1-Imidazo[1,2-a]pyridin-6-yl-3-(4-methyl-pyridin-3-yl)-imidazolidin-2-one]"
23,21,"Cc1cc(-n2ccn(-c3cnccc3C)c2=O)cs1 [Example 92A, 1-(4-Methylpyridin-3-yl)-3-(5-methylthiophen-3-yl)-1H-imidazol-2(3H)-one]"
24,17,"O=C1N(c2ccc3ncsc3c2)CCN1c1cnccc1C(F)F [Example 125A, 1-Benzothiazol-6-yl-3-(4-difluoromethyl-pyridin-3-yl)-imidazolidin-2-one]"
25,94,"Cc1ccncc1N1CCN(c2ccc3[nH][nH]c(=O)c3c2)C1=O [Example 117A, 5-[3-(4-Methyl-pyridin-3-yl)-2-oxo-imidazolidin-1-yl]-1,2-dihydro-indazol-3-one]"
26,31,"Cc1ccncc1N1CCN(c2ccn3c(Cl)cnc3c2)C1=O [Example 145A, 1-(3-Chloro-imidazo[1,2-a]pyridin-7-yl)-3-(4-methyl-pyridin-3-yl)-imidazolidin-2-one]"
27,195,"Cc1ccncc1N1CCN(c2ccc3nccnc3c2)C1=O [Example 77A, 1-(4-Methyl-pyridin-3-yl)-3-quinoxalin-6-yl-imidazolidin-2-one]"
28,2.5,"Cc1ccncc1N1CCN(c2ccc3cn[nH]c3c2)C1=O [Example 121A, 1-(1H-Indazol-6-yl)-3-(4-methyl-pyridin-3-yl)-imidazolidin-2-one]"
29,5,"Cc1ccncc1N1CCN(c2ccc(F)c(C(F)(F)F)c2)C1=O [Example 90A, 1-(4-Fluoro-3-trifluoromethyl-phenyl)-3-(4-methyl-pyridin-3-yl)-imidazolidin-2-one]"
30,13,"Cc1ccncc1N1CCN(c2ccc3[nH]nnc3c2)C1=O [Example 141A, 1-(1H-Benzotriazol-5-yl)-3-(4-methyl-pyridin-3-yl)-imidazolidin-2-one Hydrochloride]"

row,Compound,IC50 [nM]
1,"Cc1ccncc1N1CCN(c2ccc(C#N)c(Cl)c2)C1=O [Example 112A, 2-Chloro-4-[3-(4-methyl-pyridin-3-yl)-2-oxo-imidazolidin-1-yl]-benzonitrile]",28

# Same assay, conditions: human CYP17, substrate 0.25 μM; read-out: Lyase IC 50 Human/Rat (Human)
row,IC50 [nM],Compound
1,> 10000,"Cc1ccncc1N1CCCN(c2ccc3ccccc3c2)C1=O [Example 130A, 1-(4-Methyl-pyridin-3-yl)-3-naphthalen-2-yl-tetrahydro-pyrimidin-2-one]"
2,> 10000,"CC(=O)Nc1ccc(N2CCN(c3cnccc3C)C2=O)cn1 [Example 75A, N-{5-[3-(4-Methyl-pyridin-3-yl)-2-oxo-imidazolidin-1-yl]-pyridin-2-yl}-acetamide]"
3,> 10000,"NC(=O)c1ccncc1N1CCN(c2ccc3ncsc3c2)C1=O [Example 185A, 3-(3-Benzothiazol-6-yl-2-oxo-imidazolidin-1-yl)-isonicotinamide]"
4,> 10000,"CC(C)(O)c1ccncc1N1CCN(c2ccc3ncsc3c2)C1=O [Example 156A, 1-(benzo[d]thiazol-6-yl)-3-(4-(2-hydroxypropan-2-yl)pyridin-3-yl)imidazolidin-2-one]"
5,> 10000,"CN1CCC(COc2ccncc2N2CCN(c3ccc4ncsc4c3)C2=O)CC1 [Example 184A, 1-Benzothiazol-6-yl-3-[4-(1-methyl-piperidin-4-ylmethoxy)-pyridin-3-yl]-imidazolidin-2-one]"
6,> 10000,"Cc1ccncc1N1CCN(c2cn(C)c3cccc(C#N)c23)C1=O [Example 146A, 1-Methyl-3-[3-(4-methyl-pyridin-3-yl)-2-oxo-imidazolidin-1-yl]-1H-indole-4-carbonitrile]"
7,> 10000,"COc1nccc2scc(N3CCN(c4cnccc4C)C3=O)c12 [Example 110A, 1-(4-Methoxy-thieno[3,2-c]pyridin-3-yl)-3-(4-methyl-pyridin-3-yl)-imidazolidin-2-one]"
8,> 10000,"Cc1ccncc1N1CC(C)(C)N(c2ccc3ncsc3c2)C1=O [Example 163A, 3-Benzothiazol-6-yl-4,4-dimethyl-1-(4-methyl-pyridin-3-yl)-imidazolidin-2-one]"
9,> 10000,"Cc1ccncc1N1CCN(c2ccc3c(c2)ncn3C)C1=O [Example 116A, 1-(1-Methyl-1H-benzoimidazol-5-yl)-3-(4-methyl-pyridin-3-yl)-trifluoroacetic Acid]"
